In PubChem BioAssay (NCI):
Several values for one entry are separate records, joined by “and”; a condition that tells them apart may be missing. Equal entries are not always repeated.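 Five concentrations, 48 hours, 96-well plates. Here, GI50 denotes the concentration required for 50% inhibition of growth. At the TGI there is no net growth.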

How the values were obtained:
Assay in all cases: NCI anticancer screen, dose series, 48 h
[1] = system: HOP-62 NSCLC
[2] = system: M14 melanoma
[3] = system: MDA-MB-231 breast
[4] = system: MDA-MB-435
[5] = system: PC-3 prostate
[6] = system: SK-MEL-2 melanoma
[7] = system: SN12C renal
[8] = system: SNB-75 CNS
[9] = system: U251 CNS
[10] = system: UACC-257 melanoma

Row | Compound | GI50 [1] | TGI [1] | GI50 [2] | TGI [2] | GI50 [3] | TGI [3] | GI50 [4] | TGI [4] | GI50 [5] | TGI [5] | GI50 [6] | TGI [6] | GI50 [7] | TGI [7] | GI50 [8] | TGI [8] | GI50 [9] | TGI [9] | GI50 [10] | TGI [10]
1 | COc1ccc(Oc2cc(NCCC(F)(F)F)c3ncc(-c4ccc(C(=O)NC5CC5)c(C)c4)n3n2)c(F)c1F | 2.02 µM | 37 µM | 0.339 µM | > 46.1 µM | 2.16 µM | > 100 µM | 2.64 µM | > 100 µM | 2.16 µM | > 78.5 µM | 0.552 µM | 26.6 µM | 0.527 µM | > 100 µM | 1.61 µM | 31.1 µM | 0.597 µM | 57.8 µM | 9.26 µM | 59.5 µM
2 | Cc1cc(O)cc(C)c1/C=C/c1cncc(C(=O)OC(C)(C)C)c1 | > 19.4 µM | > 25 µM | > 24 µM | > 25 µM | 14 µM | > 25 µM | 11.6 µM | > 25 µM | 10.4 µM | > 25 µM | > 22.1 µM | > 25 µM | 12.6 µM | > 25 µM | 4.75 µM | > 23.9 µM | 14.9 µM | > 25 µM | 19.6 µM | > 25 µM
3 | Cc1cc2c(cc1C)[n+](Cc1ccc3ccccc3n1)cn2Cc1ccc2ccccc2n1 | 1.27 µM | 3.13 µM | 0.586 µM | 2.42 µM | 1.09 µM | 2.52 µM | 0.571 µM | 2.05 µM | 0.948 µM | 2.98 µM | 1.57 µM | 3.12 µM | 0.792 µM | 2.17 µM | 1.43 µM | 3.87 µM | 0.926 µM | 2.2 µM | 1.23 µM | 3.18 µM
4 | Oc1c2c(c(O)c3ccccc13)C1(N=N2)c2ccccc2Oc2ccccc21 |  | 38.5 µM |  | 26.1 µM |  | 32.4 µM |  | 17.9 µM |  | 28.5 µM |  | 27.4 µM |  | 27 µM |  | 33.5 µM |  | 16.4 µM |  | 19.1 µM
5 | CN(C)c1ccc(C(=C2C=CC(=[N+](C)C)C=C2)c2ccccc2Cl)cc1 | 0.292 µM | 0.949 µM | 0.274 µM | 0.942 µM | 0.338 µM | 1.73 µM | 0.309 µM | 1.11 µM | 0.242 µM | 0.995 µM | 0.339 µM | 0.899 µM | 0.239 µM | 1.67 µM | 0.238 µM | 0.851 µM | 0.127 µM | 1.14 µM | 0.528 µM | 1.73 µM
6 | CCCC#CCOC(=O)c1cc([N+](=O)[O-])cc([N+](=O)[O-])c1 |  | > 100 µM |  | > 100 µM |  | > 100 µM |  | > 100 µM |  | > 100 µM |  | > 100 µM |  | > 100 µM |  | > 100 µM |  | > 100 µM |  | > 100 µM
7 | CCN(CC)c1ccc(/C=C/C=C(/C#N)C(N)=S)cc1 | 5.37 µM | 32.3 µM | 2.53 µM | 9.33 µM | 2.11 µM | 6.03 µM | 5.01 µM | > 100 µM | 5.21 µM | > 100 µM | 20.9 µM | > 100 µM | 7.56 µM | 75.2 µM | 20.4 µM | > 100 µM | 7.36 µM | > 100 µM | 5.05 µM | 34.4 µM
8 | O=c1cc(O)c2c(O)cc(O)cc2o1 |  | > 100 µM |  | > 100 µM |  | > 100 µM |  | > 100 µM |  | > 100 µM |  | > 100 µM |  | > 100 µM |  | > 100 µM |  | > 100 µM |  | > 100 µM
9 | N#C/C(=C\c1cccc2cnccc12)N1N=NC2C=CC=CC21 (stereo not given) | 2.95 µM | 46.1 µM | 7.71 µM | > 100 µM | 1.94 µM | 8.05 µM | 2.87 µM | > 100 µM | 2.76 µM | > 100 µM | 4.49 µM | > 100 µM | 3.24 µM | > 100 µM | 0.184 µM | 3.61 µM | 3.88 µM | > 100 µM | 4.54 µM | > 100 µM
10 | CC(OC(=O)N(N(CCCl)S(C)(=O)=O)S(C)(=O)=O)c1ccc([N+](=O)[O-])cc1 (stereo not given) | 29.4 µM | > 100 µM | 49.4 µM | > 100 µM | > 51 µM | 96.8 µM | 99.4 µM | > 100 µM | > 66.7 µM | > 100 µM | > 100 µM | > 100 µM | 34.9 µM | > 100 µM | > 89.1 µM | > 100 µM | 42.5 µM | > 100 µM | 76.1 µM | > 100 µM
11 | O=C1N[C@H]2[C@H](O)[C@H](O)[C@@H](O)[C@H](O)[C@@H]2c2cc3c(c(O)c21)OCO3 | 0.246 µM and 0.0935 µM | 0.93 µM and 0.532 µM and 0.182 µM | 0.229 µM and 0.0346 µM |  |  | 0.091 µM | 0.0249 µM | 1.3 µM and 0.14 µM | 0.0381 µM and 0.0661 µM | 0.787 µM and 0.48 µM | 0.266 µM |  | 0.206 µM and 0.246 µM | 2.11 µM and 0.28 µM | 0.257 µM and 1.14 µM |  | 0.156 µM and 0.187 µM |  | 0.314 µM and 0.339 µM | 2.4 µM and 0.334 µM
12 | COC(=O)/C(=C\c1c(-c2ccccc2)[nH]c2ccccc12)S(C)(=O)=O | 10.7 µM | 36.7 µM | 3.34 µM | > 100 µM | 2.39 µM | 17.7 µM | 0.671 µM | 4.77 µM | 4.16 µM | > 100 µM | 11.8 µM | 28.4 µM | 3.14 µM | 32 µM | 2.26 µM | 9.61 µM | 3.62 µM | 18.3 µM | 11.2 µM | 25.9 µM
13 | CCN(CC)CCCNc1[nH]ncc2c(C)c3nc4ccccc4c3cc12 | 1.08 µM | 2.58 µM and 13.3 µM | 1.16 µM | 2.44 µM and 6.41 µM | 0.709 µM | 2.65 µM and 2.51 µM | 0.754 µM | 2.12 µM and 4 µM | 0.498 µM | 2.11 µM and 4.55 µM | 1.59 µM | 3.11 µM and 7.17 µM | 0.585 µM | 3.87 µM and 3.6 µM | 0.64 µM | 1.99 µM and 5.3 µM | 0.428 µM | 1.71 µM and 3.57 µM | 1.4 µM | 7.05 µM and 6.14 µM
14 | Cc1ncc(-c2ccnc(Nc3ccc(S(C)(=O)=O)cc3)n2)n1C(C)C | 1.36 µM | > 10 µM | 1.6 µM | 5.04 µM | 1.88 µM | > 9.48 µM | 1.41 µM | > 5.6 µM | 1.3 µM | 7.2 µM | 1.38 µM | 3.17 µM | 1.34 µM | 9.84 µM | 0.377 µM | 2.58 µM | 1.11 µM | > 10 µM | 1.94 µM | 5.62 µM
